Patent publication US20220193205A1, “METHODS OF TREATING CANCER” (Foghorn Therapeutics Inc., priority 2019, published 2022)

Tested on: ATRX null/ALT+ osteosarcoma cell line SAOS2
Assay: Cell viability by CellTiter-Glo after siRNA delivery
Assay type: cell-based
Details: compared to negative control siRNA, FIG. 3
Experimental: Procedure: SAOS2 cell line was seeded in 100 μL of media in 96-well plates (Corning 3904) excluding edge wells at the following density of 10000 cells per well. SOAS2 cells were seeded the day prior to transduction. Custom Stealth siRNA and Negative Control siRNA were ordered from ThermoFisher. The procedure for siRNA delivery was conducted based on the manufacturer's recommendation. The SMARCAL1 targeting siRNA sequence is: […] (SEQ ID NO: 356).
Cell viability was assayed using CellTiter-Glo (Promega G7572) at 100 μL per well. Luminescence was read using PerkinElmer EnVision 2105. Values were normalized to the average values from the negative control sgRNAs. Experiments were performed three times. Shown are the triplicate results of one representative experiment. Two tailed, type 3 Student's t-test was performed to determine statistical significance, which was conducted on Microsoft Excel (Microsoft).

**Q.** For “UUUCACAGAGAAAUGCUUAUGCAGG (siRNA; commercial Stealth siRNA, chemistry not given here, further chemistry not given here; listed as Homo sapiens) [siRNA targeting SMARCAL-1, Custom Stealth siRNA targeting SMARCAL1, ordered from ThermoFisher]”, which cell viability is on record?
**A.** Its cell viability is “decreased viability”.
